Assay results reported in paper PMC12207366, “Protonated Glutamate and Aspartate Side Chains Can Recognize Phosphodiester Groups via Strong and Short Hydrogen Bonds in Biomacromolecular Complexes” (Angewandte Chemie (International Ed. in English), 2025).

Target: T1, PilF159-302 Q190E (Thermus thermophilus, UniProt Q72H73, Q190E)
T1 sequence (Q72H73 159-302 Q190E): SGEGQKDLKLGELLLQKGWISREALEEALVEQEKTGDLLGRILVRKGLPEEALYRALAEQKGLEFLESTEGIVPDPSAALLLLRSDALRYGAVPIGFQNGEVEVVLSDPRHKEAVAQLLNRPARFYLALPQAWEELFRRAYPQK
Test: ITC c-di-GMP binding to Q190E mutant, pH series
Conditions: 20 °C
Source text: To characterize c-di-GMP binding by PilF159-302, the Q190E and Q218E constructs via isothermal titration calorimetry (ITC) and X-ray crystallography unlabeled c-di-GMP was synthesized using a constitutively active mutant of a diguanylate cyclase from the thermophilic bacterium Thermogata maritima ^[4^4,4^5]. For NMR experiments ^13C,^15N labelled c-di-GMP was synthesized identically using ^13C,^15N labelled GTP as a substrate.
c-di-GMP binding capabilities of PilF159-302, its mutant constructs PilF159-302 Q190E and PilF159-302 Q218E at varying pH-values were investigated by isothermal titration calorimetry (ITC) experiments in triplicate. All measurements were conducted at 20 °C using a MicroCal ITC200 (Malvern Panalytical, UK). For PilF159-302 Q190E and PilF159-302 Q218E ITC-measurements were conducted in a pH range from pH 8.5 – 4.0 with the buffering agent adjusted to the respective pH-range. For the pH-range 8.5 – 7.5 a sample buffer of 50 mM Tris, 200 mM NaCl and 1 mM β-Me was used. For pH values 7.0 – 6.0 a sample buffer of 50 mM BisTris, 200 mM NaCl, 1 mM β-Me and for pH 5.5 – 4.0 a sample buffer of 50 mM NaAc, 200 mM NaCl, 1 mM β-Me was used. For reference PilF159-302 was titrated with c-di-GMP at pH 8.5 in 50 mM Tris pH 8.5, 200 mM NaCl, 1 mM β-Me and at pH 4.0 in 50 mM NaAc pH 4.0, 200 mM NaCl, 1 mM β-Me. In order to test whether the buffer reagents have an influence on the measured thermodynamic parameters, cross measurements were performed in the region of the pH transitions. To this end, additional measurements with BisTris at pH 7.5 and 5.5, with Tris at pH 7.0 and with NaAc at pH 6.0 were carried out as singlets. The buffer agents had no influence on measured KD-values and resulted only in small changes of the ΔH values. All protein samples were dialyzed two times against 500 ml of the respective sample buffer (1 L in total) at 4 °C for at least 16 hours per step using a dialysis chamber with a nominal 3.5 kDa molecular weight cutoff (ZelluTrans, ROTH). To prepare the ITC-measurements protein and c-di-GMP sample were adjusted to the respective concentration using the dialysis buffer. Protein and c-di-GMP concentration ranged from 20 to 50 µM (protein) and 200 to 500 µM (c-di-GMP) depending on the c-di-GMP binding capabilities at the different pH-values to optimize precision of the measurements. For pH 8.5 – 7.0 a protein concentration of 50 µM with 500 µM c-di-GMP was used. For pH 6.5 – 5.0 a protein concentration of 30 µM with 300 µM c-di-GMP and for pH 4.5 – 4.0 a protein concentration of 20 µM with 200 µM c-di-GMP was used. The following protocol was utilized for each measurement. To 270 µl protein a total of 40 µl c-di-GMP was titrated in 21 injections with a duration of 4 s in intervals of 180 s with a stirring speed of 750 rpm. The first injection of 0.2 µl c-di-GMP with a duration of 0.4 s was carried out after an initial delay of 120 s, which was followed by 20 injections of 2 µl each with a duration of 4 s. During the measurement, the feedback mode was set to high and the reference power to 11 µcal s^-1. All thermograms were processed using Origin 7.0 (OriginLab) using the one-site binding model.

[1] = Bis-Tris, pH 5.5, buffer cross measurement, singlet
[2] = Bis-Tris, pH 7.5, buffer cross measurement, singlet
[3] = Na-Acetate, pH 6.0, buffer cross measurement, singlet
[4] = Tris, pH 7.0, buffer cross measurement, singlet

## Nc1nc2c(ncn2C2OC3COP(=O)(O)OC4C(COP(=O)(O)OC3C2O)OC(n2cnc3c(=O)[nH]c(N)nc32)C4O)c(=O)[nH]1 (stereo not drawn) [c-di-GMP]
[1]
  -TΔS: -2.53 kcal/mol
  Kd: 71 nM
  ΔG: -9.58 kcal/mol
  ΔH: -7.06 kcal/mol
Bis-Tris, pH 6.0
  -TΔS: -3.45 ± 0.05 kcal/mol
  Kd: 67 ± 3 nM
  N: 0.96 ± 0.01
  ΔG: -9.40 ± 0.02 kcal/mol
  ΔH: -5.97 ± 0.05 kcal/mol
Bis-Tris, pH 6.5
  -TΔS: -3.55 ± 0.20 kcal/mol
  Kd: 160 ± 34 nM
  N: 0.72 ± 0.12
  ΔG: -9.12 ± 0.13 kcal/mol
  ΔH: -5.58 ± 0.09 kcal/mol
Bis-Tris, pH 7.0
  -TΔS: -4.14 ± 0.23 kcal/mol
  Kd: 236 ± 8 nM
  N: 0.98 ± 0.01
  ΔG: -8.88 ± 0.02 kcal/mol
  ΔH: -4.76 ± 0.21 kcal/mol
[2]
  -TΔS: -2.51 kcal/mol
  Kd: 505 nM
  ΔG: -8.44 kcal/mol
  ΔH: -5.93 kcal/mol
Na-Acetate, pH 4.0
  -TΔS: -2.59 ± 0.37 kcal/mol
  Kd: 40 ± 13 nM
  N: 0.98 ± 0.01
  ΔG: -9.96 ± 0.22 kcal/mol
  ΔH: -7.37 ± 0.17 kcal/mol
Na-Acetate, pH 4.5
  -TΔS: -2.27 ± 0.87 kcal/mol
  Kd: 42 ± 13 nM
  N: 0.95 ± 0.13
  ΔG: -9.92 ± 0.18 kcal/mol
  ΔH: -7.65 ± 0.98 kcal/mol
Na-Acetate, pH 5.0
  -TΔS: -0.27 ± 0.51 kcal/mol
  Kd: 78 ± 11 nM
  N: 0.91 ± 0.04
  ΔG: -9.54 ± 0.09 kcal/mol
  ΔH: -9.28 ± 0.43 kcal/mol
Na-Acetate, pH 5.5
  -TΔS: -1.11 ± 0.16 kcal/mol
  Kd: 74 ± 8 nM
  N: 1.02 ± 0.02
  ΔG: -9.56 ± 0.07 kcal/mol
  ΔH: -8.54 ± 0.04 kcal/mol
[3]
  -TΔS: -0.49 kcal/mol
  Kd: 96 nM
  ΔG: -9.41 kcal/mol
  ΔH: -8.93 kcal/mol
[4]
  -TΔS: -6.09 kcal/mol
  Kd: 223 nM
  ΔG: -8.92 kcal/mol
  ΔH: -2.81 kcal/mol
Tris, pH 7.5
  -TΔS: -4.63 ± 0.19 kcal/mol
  Kd: 511 ± 13 nM
  N: 0.95 ± 0.09
  ΔG: -8.44 ± 0.02 kcal/mol
  ΔH: -3.81 ± 0.20 kcal/mol
Tris, pH 8.0
  -TΔS: -3.37 ± 0.65 kcal/mol
  Kd: 729 ± 44 nM
  N: 0.84 ± 0.17
  ΔG: -8.23 ± 0.04 kcal/mol
  ΔH: -4.87 ± 0.68 kcal/mol
Tris, pH 8.5
  -TΔS: -2.52 ± 0.20 kcal/mol
  Kd: 798 ± 39 nM
